Reference: patent US10383872B2, “Pharmaceutical compositions comprising phenylaminopyrimidine derivative” (priority 2015, dated 2019)
In brackets after ≈: the same amount, converted by molar mass.

How the values were obtained:
[1] = Oral gavage pharmacokinetics (suspension) in albino wistar rats; settings: rat, in vivo, oral gavage 40 mg/kg·bw
Description: FIG. 1 illustrates the area under the curve in albino wistar rats after oral administration of NRC-AN-019 “as is” and different solid dispersions in accordance with the invention.
The study discloses better bioavailability characteristics of NRC-AN-019 in the formulation of the present invention than NRC-AN-019 as such. Thus, the optimum bioavailability can be achieved for the therapeutic effectiveness of NRC-AN-019. The maximum concentration and AUC of the formulation of the present invention are substantially higher than that of NRC-AN-019 “as is” due to better absorption characteristics of the solid dispersion of NRC-AN-019 in amorphous or, partially amorphous or, crystalline form. The details of the process of the invention are provided in the examples given below which is provided by way of illustration only and therefore should not be construed to limit the scope of the invention. The preparation of the present invention that can be administered by the oral route is carried out according to the following process.
NRC-AN-019 active pharmaceutical ingredient (API) and the compositions of the present invention were administered through oral gavage at 40 mg/kg·bw in the form of a suspension in albino wistar rats. […] The Cmax and AUC0-∞ for the compositions of the present invention vary between 900 ng/mL to 2000 ng/mL and 7500 ng·hr/mL to 16000 ng·hr/mL respectively.

[2] = Solubility of NRC-AN-019 (aqueous at physiological pH; organic solvents); type: physicochemical
Description: Its molecular formula is C25H17F6N5O and its relative molecular mass is 517.44.
It is soluble in dimethylformamide, dimethylacetamide and dimethyl sulfoxide. NRC-AN-019 presents specific difficulties in relation to solubility and its formulation development. Oral absorption of such insoluble drugs is the key point to be considered in solving the problem of low bioavailability.

`Cc1ccc(NC(=O)c2cc(C(F)(F)F)cc(C(F)(F)F)c2)cc1Nc1nccc(-c2cccnc2)n1` [NRC-AN-019, (3,5-Bis trifluoromethyl)-N-[4-methyl-3-(4-pyridin-3-yl-pyrimidin-2-yl-amino)phenyl]benzamide] showed a Cmax [1] of 33.7 ng/mL, an AUC(0-inf) ([1]; read-out: average AUC0-∞) of 453 ng·h/mL and a solubility ([2]; aqueous medium at pH 1.2 (buffer not named), pH 1.2, simulated gastric fluid) of 6.6 µg/mL (≈ 12.8 µM). For the same compound, the solubility ([2]; aqueous medium at pH 2.0 (buffer not named), pH 2, simulated gastric fluid) was 0.2 µg/mL (≈ 0.387 µM), the “solubility in organic solvents” value ([2]; dimethylformamide, dimethylacetamide and dimethyl sulfoxide) was “soluble” and the aqueous solubility ([2]; pH 3.0, 4.0, 5.0, 6.0, 6.8, 7.0, 7.5, 8.0 and water) was “below detection limit”. For the same compound, the solubility in water ([2]; water) was “practically insoluble”.
